# From paper PMC4366154, “Easy to Use Plastic Optical Fiber-Based Biosensor for Detection of Butanal” (PLoS ONE, 2015)
# Biological target: T1, porcine odorant-binding protein (pOBP) (Sus scrofa, UniProt P81245)
# T1 construct: recombinant in E. coli BL21-DE3 from pGEX2TK as GST fusion, GST cut off on column with thrombin
# T1 sequence (P81245 1-157): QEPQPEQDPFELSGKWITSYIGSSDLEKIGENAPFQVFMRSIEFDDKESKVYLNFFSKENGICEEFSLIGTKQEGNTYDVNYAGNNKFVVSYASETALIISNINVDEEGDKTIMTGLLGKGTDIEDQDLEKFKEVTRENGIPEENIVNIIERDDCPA
# Assay: direct fluorescence titration, emission at […] nm
# Settings: 20 mM Tris-HCl pH 7.8, 1.0 μM pOBP, overnight at 4 °C
smiles,measurement,value
Nc1cccc2cc3ccccc3cc12 [1-amino-anthracene],"direct fluorescence titration, emission at 480 nm",direct titrations using the fluorescent ligand 1-amino-anthracene (AMA)
